Reference: patent US11524940B1, “Inhibitors of cysteine proteases and methods of use thereof” (priority 2020, dated 2022)
Where two headings read alike, the source gives them in different places.

Tests used:
[1] = target: SARS-CoV2 Mpro (Severe acute respiratory syndrome coronavirus 2 (2019-nCoV) (SARS-CoV-2), UniProt P0DTD1); test: COVID-19 (SARS-CoV2) Mpro enzymatic assay; assay type: biochemical; details: 25 nM Mpro, 25 μM substrate
[2] = target: 229E Mpro (Human coronavirus 229E (HCoV-229E), UniProt P0C6X1); test: 229E Mpro activity; assay type: biochemical
Chain of 229E Mpro (P0C6X1 2966-3267 limits assumed): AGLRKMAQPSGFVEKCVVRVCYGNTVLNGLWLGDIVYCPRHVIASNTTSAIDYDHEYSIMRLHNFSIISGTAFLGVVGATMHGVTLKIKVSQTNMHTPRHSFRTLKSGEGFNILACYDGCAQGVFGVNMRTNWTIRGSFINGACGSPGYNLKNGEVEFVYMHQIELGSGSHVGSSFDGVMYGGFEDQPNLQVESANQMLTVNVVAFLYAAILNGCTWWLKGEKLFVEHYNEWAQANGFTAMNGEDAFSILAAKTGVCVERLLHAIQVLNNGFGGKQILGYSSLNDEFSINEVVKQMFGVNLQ
Experimental: Compounds are assayed using standard methods to assess compound activity and IC50. […] The assay buffer contains 20 mM of Tris-HCl (pH 7.3), 100 mM of NaCl, 1 mM of EDTA, 5mM of TCEP and 0.1% BSA.

SMILES	IC50 [1] [µM]	EC50 ([2]; read-out: 229E Mpro EC50) [µM]	EC50 ([2]; 229E Mpro EC50) [µM]
N#C[C@H](C[C@@H]1CCCNC1=O)NC(=O)C1CC2(CCC2)CN1C(=O)c1cc2c(Cl)cccc2[nH]1 (single isomer, unassigned) [803 (Isomer 4)]	2 to 10	< 2	–
CC1(C)CC(C[C@@H](C#N)NC(=O)C2CC3(CCCCC3)CN2C(=O)c2cc3cccc(Cl)c3[nH]2)C(=O)N1 (single isomer, unassigned) [930 (Isomer 4)]	2 to 10	10 to 30	–
N#C[C@H](C[C@@H]1CCNC1=O)NC(=O)C1CC2(CCC2)CN1C(=O)c1cc2ccc(Cl)cc2[nH]1 (single isomer, unassigned) [990 (Isomer 1)]	> 30	> 30	–
N#C[C@H](C[C@@H]1CCCNC1=O)NC(=O)C1CC2(CCC(F)(F)CC2)CN1C(=O)c1cc2cccc(Cl)c2[nH]1 (single isomer, unassigned) [805 (Isomer 1)]	10 to 30	> 30	–
N#C[C@H](C[C@@H]1CCCNC1=O)NC(=O)[C@H](CC1CC1)NC(=O)c1ccn[nH]1 [Compound 872, N-((S)-1-(((S)-1-cyano-2-((S)-2-oxopiperidin-3-yl)ethyl)amino)-3-cyclopropyl-1-oxopropan-2-yl)-1H-pyrazole-5-carboxamide]	2 to 10	2 to 10	–
COc1cccc2[nH]c(C(=O)N3CC4(CCCCC4)CC3C(=O)N[C@H](C#N)CC3CCC(C)(C)NC3=O)cc12 (single isomer, unassigned) [1111 (Isomer 1)]	< 2	2 to 10	–
N#C[C@H](C[C@@H]1CCNC1=O)NC(=O)C1CC2(CCC2)CN1C(=O)c1cc2ccc(Cl)c(Cl)c2[nH]1 (single isomer, unassigned) [814 (Isomer 2)]	< 2	< 2	–
COc1ccc(Cl)c2[nH]c(C(=O)N3CC4(CCCCC4)CC3C(=O)N[C@H](C#N)C[C@@H]3CCNC3=O)cc12 (single isomer, unassigned) [882 (Isomer 2)]	10 to 30	10 to 30	–
COc1cccc2[nH]c(C(=O)N3Cc4ccccc4C3C(=O)N[C@H](C#N)C[C@@H]3CCNC3=O)cc12 (single isomer, unassigned) [429A (Isomer 1)]	10 to 30	> 30	–
COc1ccc(Cl)c2[nH]c(C(=O)N3CC4(CCCCC4)CC3C(=O)NC(C#N)C[C@@H]3CCCNC3=O)cc12 (single isomer, unassigned) [902 (Isomer 3)]	< 2	< 2	–
CC1(C)CC(C[C@@H](C#N)NC(=O)C2CC3(CCCCC3)CN2C(=O)c2cc3cccc(Cl)c3[nH]2)C(=O)N1 (single isomer, unassigned) [930 (Isomer 2)]	10 to 30	> 30	–
N#C[C@H](C[C@@H]1CCCNC1=O)NC(=O)C1CC2(CCC2)CN1C(=O)c1cc2c(Cl)cccc2[nH]1 (single isomer, unassigned) [803 (Isomer 1)]	> 30	> 30	–
COc1cccc2[nH]c(C(=O)N3C[C@H](C)C[C@H]3C(=O)N[C@H](C#N)C[C@@H]3CCNC3=O)cc12 [Compound 413]	2 to 10	< 2	–
N#C[C@H](C[C@@H]1CCCNC1=O)NC(=O)C1CC2(CCCCC2)CN1C(=O)c1cc2cccc(Cl)c2[nH]1 (single isomer, unassigned) [731 (Isomer 2)]	2 to 10	10 to 30	–
COC(=O)NS(=O)(=O)n1nccc1C(=O)N[C@@H](CC1CC1)C(=O)N[C@H](C#N)C[C@@H]1CCCNC1=O [Compound 1258]	2 to 10	2 to 10	–
COc1cccc2[nH]c(C(=O)N3Cc4ccccc4C3C(=O)N[C@H](C#N)C[C@@H]3CCNC3=O)cc12 (single isomer, unassigned) [429A (Isomer 2)]	> 30	> 30	–

SMILES	IC50 [1] [µM]	EC50 ([2]; read-out: 229E Mpro EC50) [µM]	EC50 ([2]; 229E Mpro EC50) [µM]
COc1cccc2[nH]c(C(=O)N3CC4(CCCCC4)CC3C(=O)N[C@H](C#N)CC3CCC(C)(C)NC3=O)cc12 (single isomer, unassigned) [1111 (Isomer 4)]	> 30	> 30	–
N#C[C@H](C[C@@H]1CCCNC1=O)NC(=O)C1CC2(CCC(F)(F)CC2)CN1C(=O)c1cc2cccc(Cl)c2[nH]1 (single isomer, unassigned) [805 (Isomer 2)]	< 2	< 2	–
COc1ccc(Cl)c2[nH]c(C(=O)N3CC4(CCCCC4)CC3C(=O)N[C@H](C#N)C[C@@H]3CCNC3=O)cc12 (single isomer, unassigned) [882 (Isomer 1)]	< 2	< 2	–
COc1ccc(Cl)c2[nH]c(C(=O)N3CC4(CCC4)CC3C(=O)N[C@H](C#N)C[C@@H]3CCNC3=O)cc12 (single isomer, unassigned) [992 (Isomer 2)]	> 30	> 30	–
N#C[C@H](C[C@@H]1CCNC1=O)NC(=O)C1CC2(CCC2)CN1C(=O)c1cc2ccc(Cl)cc2[nH]1 (single isomer, unassigned) [990 (Isomer 2)]	< 2	< 2	–
N#C[C@H](C[C@@H]1CCCNC1=O)NC(=O)C1CC2(CCC2)CN1C(=O)c1cc2c(Cl)cccc2[nH]1 (single isomer, unassigned) [803 (Isomer 2)]	> 30	> 30	–
N#C[C@H](C[C@@H]1CCCNC1=O)NC(=O)C1CC2(CN1C(=O)c1cc3cccc(Cl)c3[nH]1)CC(F)(F)C2 (single isomer, unassigned) [743 (Isomer 1)]	> 30	–	> 30
COc1cc(Cl)c2[nH]c(C(=O)N3CC4(CCCCC4)CC3C(=O)N[C@H](C#N)C[C@@H]3CCCNC3=O)cc2c1 (single isomer, unassigned) [1147A (Isomer 2)]	2 to 10	10 to 30	–
N#C[C@H](C[C@@H]1CCCNC1=O)NC(=O)C1CC2(CCC2)CN1C(=O)c1cc2ccc(Cl)cc2[nH]1 (single isomer, unassigned) [791 (Isomer 1)]	> 30	> 30	–
N#C[C@@]1(NC(=O)[C@H](CC2CC2)NC(=O)OCc2ccccc2)C[C@@H]2CC[C@H]1[C@@H]1C(=O)NC(=O)[C@H]21 (single isomer, unassigned) [495 (Isomer 2)]	> 30	> 30	–
COc1ccc(Cl)c2[nH]c(C(=O)N3CC4(CCC4)CC3C(=O)N[C@H](C#N)C[C@@H]3CCNC3=O)cc12 (single isomer, unassigned) [992 (Isomer 1)]	< 2	< 2	–
COc1cccc2[nH]c(C(=O)N3CC[C@H](c4ccccc4)[C@H]3C(=O)N[C@H](C#N)C[C@@H]3CCNC3=O)cc12 [Compound 163, (2S,3R)-N-((S)-1-cyano-2-((S)-2-oxopyrrolidin-3-yl)ethyl)-1-(4-methoxy-1H-indole-2-carbonyl)-3-phenylpyrrolidine-2-carboxamide]	2 to 10	10 to 30	–
COc1cccc2[nH]c(C(=O)N3CC4(CCC(F)(F)CC4)CC3C(=O)N[C@H](C#N)C[C@@H]3CCCNC3=O)cc12 (single isomer, unassigned) [982 (Isomer 2)]	> 30	> 30	–
CC1(C)CCC(C[C@@H](C#N)NC(=O)C2CC3(CCCCC3)CN2C(=O)c2cc3cccc(Cl)c3[nH]2)C(=O)N1 (single isomer, unassigned) [928 (Isomer 3)]	< 2	2 to 10	–
COc1cccc2[nH]c(C(=O)N3CC4(CCCCC4)CC3C(=O)N[C@H](C#N)CC3CCC(C)(C)NC3=O)cc12 (single isomer, unassigned) [1111 (Isomer 2)]	> 30	> 30	–
